Assay results taken from article PMC11096235, “Membrane-bound chemoreception of bitter bile acids and peptides is mediated by the same subset of bitter taste receptors” (Cellular and Molecular Life Sciences: CMLS, 2024).
Peptide text beside a SMILES is read from it.

Experiments:
Assay in all cases: FLIPR calcium mobilization (Fluo-4), agonist activation
Type in all cases: cell-based
Details in all cases: HEK 293T-Gα16gust44 cells, pH 7.4
[1] = molecular target: T1, Tas2r29 (xtTas2r29) (Xenopus tropicalis, UniProt Q2AB56)
T1 construct: full length, N-terminal sst3 export tag, C-terminal hsv tag; HEK 293T-Galpha16gust44
T1 sequence (Q2AB56 1-290): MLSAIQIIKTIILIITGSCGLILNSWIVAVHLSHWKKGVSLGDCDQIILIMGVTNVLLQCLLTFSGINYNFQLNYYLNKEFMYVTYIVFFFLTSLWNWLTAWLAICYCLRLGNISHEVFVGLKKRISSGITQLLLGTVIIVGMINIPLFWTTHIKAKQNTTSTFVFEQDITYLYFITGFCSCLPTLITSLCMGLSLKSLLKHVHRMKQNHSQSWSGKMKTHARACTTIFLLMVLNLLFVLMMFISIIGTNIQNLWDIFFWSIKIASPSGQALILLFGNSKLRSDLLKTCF

[2] = molecular target: T2, zebrafish receptor Tas2r4 (Danio rerio, UniProt Q58WW8)
T2 construct: gene tas2r203; full length, N-terminal sst3 export tag, C-terminal hsv tag; HEK 293T-Galpha16gust44
T2 sequence (Q58WW8 1-305): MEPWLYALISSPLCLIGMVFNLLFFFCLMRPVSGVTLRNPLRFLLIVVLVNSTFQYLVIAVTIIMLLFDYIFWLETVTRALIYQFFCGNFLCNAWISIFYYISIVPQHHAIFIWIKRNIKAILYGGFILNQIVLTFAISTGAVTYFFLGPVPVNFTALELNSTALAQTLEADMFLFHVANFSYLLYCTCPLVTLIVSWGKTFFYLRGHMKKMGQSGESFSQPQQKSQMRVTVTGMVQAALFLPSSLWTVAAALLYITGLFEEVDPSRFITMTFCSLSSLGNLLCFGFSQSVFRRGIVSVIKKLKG

[3] = molecular target: T3, chicken Tas2r2 (ggTas2r2) (Gallus gallus, UniProt A0A1D5PXM6)
T3 construct: gene LOC101747503; full length, N-terminal sst3 export tag, C-terminal hsv tag; HEK 293T-Galpha16gust44
T3 sequence (A0A1D5PXM6 1-311): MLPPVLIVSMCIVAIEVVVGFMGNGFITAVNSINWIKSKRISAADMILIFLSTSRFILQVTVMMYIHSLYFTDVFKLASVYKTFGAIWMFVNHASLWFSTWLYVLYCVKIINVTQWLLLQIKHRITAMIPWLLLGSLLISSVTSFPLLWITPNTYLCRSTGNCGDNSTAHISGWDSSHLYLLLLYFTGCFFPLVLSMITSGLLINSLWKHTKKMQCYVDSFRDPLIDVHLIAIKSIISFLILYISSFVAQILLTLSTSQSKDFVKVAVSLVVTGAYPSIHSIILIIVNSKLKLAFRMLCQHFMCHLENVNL

SMILES: N[C@@H](Cc1c[nH]c2ccccc12)C(=O)N[C@@H](Cc1c[nH]c2ccccc12)C(=O)N[C@@H](Cc1c[nH]c2ccccc12)C(=O)O [L-Trp-Trp-Trp] (H-Trp-Trp-Trp-OH)
- dF/F [1]: Tas2r29 exhibited only weak, yet significant, responses to L-Trp-Trp-Trp as well as to CA and GCA

SMILES: N[C@@H](Cc1c[nH]c2ccccc12)C(=O)O [L-Trp]
- dF/F [2]: Subsequent testing with L- and D-Trp revealed responsiveness to these amino acids

SMILES: C[C@H](CCC(=O)O)[C@H]1CC[C@H]2[C@@H]3[C@H](O)C[C@@H]4C[C@H](O)CC[C@]4(C)[C@H]3C[C@H](O)[C@]12C [cholic acid]
- dF/F [3]: chicken Tas2r2 were only significant for the highest concentrations of the two bile acids
